What was measured:
[1] = Dynamic vapor sorption (DVS) analysis, hygroscopicity; type: physicochemical; conditions: crystalline form; VTI-SGA100
Experimental: Dynamic vapor sorption analysis was conducted using a VTI-SGA100. Samples were placed in an open pan inside the instrument and allowed to dry at a relative humidity (RH) of 0%. The sample was considered sufficiently dry when a change in mass over time (dm/dt) was less than 0.04%. The subsequent experiment which, started immediately after drying, was as follows: RH increased in 5% RH steps from 0-95% followed by decreasing RH steps from 95-5%. A change in dm/dt of 0.002% was used to determine when equilibration at any given step was achieved prior to the instrument moving to the next relative humidity step.
Hygroscopicity was measured using a dynamic moisture-sorption analyzer, VTI Corporation, SGA-100. The sample was placed as-is in a tared sample holder on the VTI balance. A drying step was run at 40° C. and 1% RH for 20 minutes. The isotherm conditions are 25° C. with steps of 20% RH from 10% RH up to 90% RH and back to 10% RH. Weight is checked every 5 minutes. Consecutive % weight change of <0.01% or 2 hours, whichever occurs first, is required before continuing to the next step.

RAMH-induced drinking = experiment: Blockade of RAMH-induced drinking assay; type: in vivo, rat; conditions: male Sprague Dawley rats; 0.3 mg/kg PO; RAMH 3 mg/kg SC 30 min later; water intake over 20 min
Experimental: When administered to rodents, H3 agonists such as R-α-methyl-histamine (RAMH) induce a drinking response which is sensitive to reversal with an H3 antagonist. Blockade of RAMH-induced drinking can therefore be utilised as an in vivo assay for functional H3 antagonist activity. In this assay, male Sprague Dawley rats (250-350 g) were housed three per cage and maintained under a reverse 12 h light cycle (lights off at 1130 h). At 1030 h on the day of test, rats were individually housed in new cages and food was removed. 120 min later, rats were administered test article (vehicle or H3 antagonist, 0.3 mg/kg PO). 30 min later, water was removed, and RAMH (vehicle or RAMH 3 mg/kg salt SC) was administered. 10 min after administration of RAMH, weighed water bottles were placed in the cages, and drinking was allowed for 20 min. Water consumption was determined for each animal by weighing each bottle to the nearest 0.1 g. Data is expressed as percentage reduction in water intake according to the following formula: [1−[(ANTAGONIST/RAMH)−(VEHICLE/RAMH)/(VEHICLE/RAMH)−(VEHICLE/VEHICLE)]]*100

histamine H3-receptor = histamine H3-receptor (Rattus norvegicus, UniProt Q9QYN8); experiment: [3H] N-alpha-methyl-histamine competitive histamine H3-receptor binding assay; conditions: membranes from whole rat brain cortex; [3H]-N-α-methyl-histamine 1 nM; 30 min at room temperature
Experimental: The histamine receptor binding assay was conducted using standard laboratory procedures as described below. A crude membrane fraction was prepared from whole rat brain cortex using a polytron to homogenize the tissue followed by differential centrifugation in a HEPES-based buffer containing protease inhibitors. Membranes where frozen at −80° C. until needed. Frozen membranes were thawed and resuspended in ice-cold assay buffer consisting of 50 mM TRIS containing 5 mM EDTA (pH=7.4). 50 micrograms (μg) of membrane protein was added to each well of a 96-well assay plate along with test compound and [^3H]-N-α-methyl-histamine (1 nanomolar (nM) final assay concentration). Imetit was used as an assay positive control at varying concentrations. The plate was incubated for 30 min at room temperature. The assay was terminated by rapid filtration through a 96-well glass fiber filtration plate (GF/C) using a cell harvester (Perkin-Elmer). Captured membranes were washed three times with cold assay buffer and plates were dried at 50° C. 35 microliters (μL) of scintillation cocktail was added to each well and membrane-bound radioactivity was recorded using a TopCount 96-well plate scintillation counter (Perkin-Elmer).

[2] = target: T1, human histamine H3-receptor (Homo sapiens, UniProt Q9Y5N1); experiment: Human histamine H3-receptor binding assay, MDS Pharma Services (Taiwan); conditions: Catalogue No. 239810
T1 construct: purchased MDS Pharma Services (Taiwan) 239810
Experimental: Compounds were tested for their ability to bind to the human histamine H3-receptor using the MDS Pharma Services (Taiwan) assay, Catalogue No. 239810.

histamine H3-receptor, sequence (Q9QYN8 1-397 isoform Q9QYN8-3): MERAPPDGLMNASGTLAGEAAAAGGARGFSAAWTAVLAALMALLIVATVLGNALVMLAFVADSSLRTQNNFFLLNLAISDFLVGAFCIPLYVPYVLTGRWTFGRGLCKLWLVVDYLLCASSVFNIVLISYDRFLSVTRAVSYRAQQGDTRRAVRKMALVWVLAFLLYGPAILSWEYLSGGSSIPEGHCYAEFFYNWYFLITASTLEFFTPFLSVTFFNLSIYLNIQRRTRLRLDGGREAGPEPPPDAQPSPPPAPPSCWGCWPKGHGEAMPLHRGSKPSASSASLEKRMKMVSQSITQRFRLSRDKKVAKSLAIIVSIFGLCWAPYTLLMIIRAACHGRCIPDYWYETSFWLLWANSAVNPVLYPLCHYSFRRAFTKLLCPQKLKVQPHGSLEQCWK
T1 sequence (Q9Y5N1 whole entry): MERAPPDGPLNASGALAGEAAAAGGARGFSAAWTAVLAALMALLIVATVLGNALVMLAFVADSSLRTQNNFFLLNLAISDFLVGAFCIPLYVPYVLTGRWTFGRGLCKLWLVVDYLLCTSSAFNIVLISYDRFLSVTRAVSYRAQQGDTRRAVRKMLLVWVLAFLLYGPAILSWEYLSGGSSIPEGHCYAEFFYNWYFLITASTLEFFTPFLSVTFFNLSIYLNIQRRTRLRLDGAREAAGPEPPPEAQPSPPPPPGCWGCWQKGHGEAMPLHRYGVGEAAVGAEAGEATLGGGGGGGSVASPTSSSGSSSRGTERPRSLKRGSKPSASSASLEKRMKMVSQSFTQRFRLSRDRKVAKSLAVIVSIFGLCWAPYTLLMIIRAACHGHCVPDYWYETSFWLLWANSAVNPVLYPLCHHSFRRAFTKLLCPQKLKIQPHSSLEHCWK

Structure (SMILES) | hygroscopicity from DVS data [1] | % inhibition of RAMH-induced drinking (RAMH-induced drinking) | Ki (histamine H3-receptor) | Ki [2]
COCCCS(=O)(=O)c1ccc(-c2ccc(CCN3CCC[C@H]3C)cc2)cc1.O=C(O)/C=C\C(=O)O [(R)-1-{2-[4′-(3-methoxy-propane-1-sulfonyl)-biphenyl-4-yl]-ethyl}-2-methyl-pyrrolidine maleate] | non-hygroscopic |  |  | 
COCCCS(=O)(=O)c1ccc(-c2ccc(CCN3CCC[C@H]3C)cc2)cc1.O=C(O)CC(O)(CC(=O)O)C(=O)O.O=C(O)CC(O)(CC(=O)O)C(=O)O [Cmpd (I) di-citrate, (R)-1-{2-[4′-(3-methoxy-propane-1-sulfonyl)-biphenyl-4-yl]-ethyl}-2-methyl-pyrrolidine di-citrate] | non-hygroscopic | 104 ± 14% | 0.75 nM | 
COCCCS(=O)(=O)c1ccc(-c2ccc(CCN3CCC[C@H]3C)cc2)cc1 [Cmpd (I), (R)-1-{2-[4′-(3-methoxy-propane-1-sulfonyl)-biphenyl-4-yl]-ethyl}-2-methyl-pyrrolidine] |  |  |  | 5.37 nM
